One assay has as its system E. coli ATCC 25922. The settings on record: reference 26, cited from earlier work.
The subject of the next assay is P. pseudomallei. Particulars: reference 208, cited from earlier work.
Another assay concerns S. aureus NCTC 8325-4. Particulars: reference 215, cited from earlier work.
The test system of a further assay is endodontic lesions. Nature of the assay: Intracanal medication of patients with large endodontic lesions, healing evaluated by CBCT and radiograph. It is filed as in vivo. The settings on record: 12 months post obturation.

Marks after values point to notes of the source that are not given here.

Take `CC1(C)S[C@@H]2[C@H](NC(=O)[C@H](N)c3ccccc3)C(=O)N2[C@H]1C(=O)O` [Ampicillin]: the “Concentration effective against biofilm phenotype” value (from here on “Concentration effective”) in the assay with E. coli ATCC 25922 (biofilm, minimal biofilm eradication concentration) is on record as 512^b μg/ml. Moreover, in the assay on E. coli ATCC 25922 (planktonic E. coli ATCC 25922), the “MIC of planktonic phenotype” value is 2 (MIC) μg/ml.
Consider `CC(C)(O/N=C(\C(=O)N[C@@H]1C(=O)N2C(C(=O)[O-])=C(C[n+]3ccccc3)CS[C@H]12)c1csc(N)n1)C(=O)O` [Ceftazidime], for which the “Concentration effective” value in the assay on P. pseudomallei (biofilm, concentration required for ~99% reduction) is 800^c μg/ml. Further, in the assay with P. pseudomallei (planktonic P. pseudomallei), the “MBC of planktonic phenotype” value is 8 (MBC) μg/ml.
With `CN[C@H](CC(C)C)C(=O)N[C@H]1C(=O)N[C@@H](CC(N)=O)C(=O)N[C@H]2C(=O)N[C@H]3C(=O)N[C@H](C(=O)N[C@H](C(=O)O)c4cc(O)cc(O)c4-c4cc3ccc4O)[C@H](O)c3ccc(c(Cl)c3)Oc3cc2cc(c3O[C@@H]2O[C@H](CO)[C@@H](O)[C@H](O)[C@H]2O[C@H]2C[C@](C)(N)[C@H](O)[C@H](C)O2)Oc2ccc(cc2Cl)[C@H]1O` [Vancomycin], in the assay with S. aureus NCTC 8325-4 (biofilm, concentration required for 99% reduction), the “Concentration effective” value is 20^a μg/ml. Also, in the assay with S. aureus NCTC 8325-4 (planktonic S. aureus NCTC 8325-4), the “MBC of planktonic phenotype” value is given as 2 (MBC) μg/ml.
Consider `[Ca+2].[OH-].[OH-]` [calcium hydroxide], for which the “change in size of lesion, Example Case No. 3” value in the assay on endodontic lesions (tooth 10) is on record as “no change in the size of lesion”. Besides, in the assay on endodontic lesions (four weeks of intra-canal medication, teeth 7 and 8 formula, tooth 10 calcium hydroxide), the “lesion healing, Example Case No. 3 side-by-side comparison” value is “non-healing of the smaller lesion”.

The values are drawn from US20250057814A1, “ENDODONTIC BIOFILM-ERADICATION TECHNIQUE UTILIZING A DUAL-SYSTEM INTRACANAL MEDICATION” (priority 2023, published 2025).
